Results on one compound are retold here after patent US20050019308A1, “Oncolytic viruses for the treatment of neoplasms having activated PP2A or Rac” (Oncolytics Biotech Inc., priority 2003, published 2005).

In one assay the test system is PKR. As to the kind of experiment: PKR phosphorylation in cells transformed with v-erbB in the presence of selective phosphatase inhibitors. The note with it: in the presence of the inhibitor. The class given is cell-based. The text has this:
(§1) PKR is not phosphorylated (i.e., […]) in cells transformed with elements of the ras pathway, such as v-erbB. To determine whether serine-threonine phosphatases are responsible for the lack of phosphorylation of PKR in these cells, selective inhibitors of the phosphatases are employed to assess the role of each phosphatase. […] Inhibitors specific for PP1 or PP2C have no effects on PKR phosphorylation.

The subject of the next assay is PP2A. The note with it: cited from earlier work.
The next assay deals with PP1. The settings on record: cited from earlier work.
A further assay concerns PP2B. The note with it: cited from earlier work.
The test system of another assay is reovirus. As to the kind of experiment: Susceptibility of phosphatase inhibitor-treated transformed cells to reovirus infection. The class given is cell-based. The settings on record: okadaic acid-treated cells.
Description: as §1

Structures are written as SMILES.

For `C=C1[C@@H](O)[C@@H]2O[C@]3(CC[C@H](/C=C/[C@@H](C)[C@@H]4CC(C)=C[C@@]5(O[C@H](C[C@@](C)(O)C(=O)O)CC[C@H]5O)O4)O3)CC[C@H]2O[C@@H]1[C@@H](O)C[C@H](C)[C@H]1O[C@@]2(CCCCO2)CC[C@H]1C` [okadaic acid], the “effect on PKR phosphorylation” value with PKR is reported as “PKR becomes phosphorylated”. Also, the effectiveness against phosphatase result is “most effective against PP2A” with PP2A, “less so against PP1” in the assay on PP1 and “only marginally against PP2B” in the assay with PP2B. Further, in the assay with reovirus, the “susceptibility of treated cells to reovirus infection” value is “become susceptible to reovirus infection”.
